{
  "source": "patent US20230312562A1",
  "about": "“TETRAHYDRO-3H-PYRAZOLO QUINOLONE AND TETRAHYDRO-3H-PYRROLO[3,2-F]QUINOLINE -CONTAINING COMPOUNDS AND USES THEREOF” (Purdue Research Foundation, priority 2020, published 2023)",
  "data": [
    {"system": "MDA-MB-231", "assay": "Inhibition of MDA-MB-231 viability/growth at 1 μM, 72 h", "assay_type": "cell-based", "settings": "1 μM compound, 72 h incubation", "values": [
      {"smiles": "Cc1n[nH]c2ccc3c(c12)[C@H]1C2CC[C@@H](C2)[C@H]1[C@H](c1ccc2[nH]nc(N)c2c1)N3", "note": "(stereo in doubt) [Compound 20, 5-(1-Methyl-6,7,7a,8,9,10,11,11a-octahydro-3H-8,11-methanopyrazolo[4,3-a]phenanthridin-7-yl)-1H-indazol-3-amine]", "Inhibition of MDA-MB-231, result in words": "loss of potency"}
    ]},
    {"system": "MDA-MB-231", "assay": "Inhibition of MDA-MB-231 viability/growth at 1 μM, 72 h", "assay_type": "cell-based", "settings": "Homo sapiens, MDA-MB-231; 1 μM compound, 72 h incubation", "units": {"inhibition at 1 µM": "%"}, "values": [
      {"smiles": "Nc1nc2ccc([C@@H]3Nc4ccc5[nH]ncc5c4[C@H]4[C@@H]5CC[C@@H](C5)[C@H]43)cc2s1", "note": "[Compound 29, 6-(6,7,7a,8,9,10,11,11a-Octahydro-3H-8,11-methanopyrazolo[4,3-a]phenanthridin-7-yl)benzo[d]thiazol-2-amine]", "inhibition at 1 µM": 41},
      {"smiles": "Nc1ccc([C@@H]2Nc3ccc4[nH]ncc4c3[C@H]3[C@@H]4CC[C@@H](C4)[C@H]32)cn1", "note": "(stereo in doubt) [Compound 9, 5-(6,7,7a,8,9,10,11,11a-Octahydro-3H-8,11-methanopyrazolo[4,3-a]phenanthridin-7-yl)pyridin-2-amine]", "inhibition at 1 µM": 18},
      {"smiles": "FC(F)(F)c1ccc([C@@H]2Nc3ccc4[nH]ncc4c3[C@H]3[C@@H]4CC[C@@H](C4)[C@H]32)cc1", "note": "(stereo in doubt) [Compound 6, 7-(4-(Trifluoromethyl)phenyl)-6,7,7a,8,9,10,11,11a-octahydro-3H-8,11-methanopyrazolo[4,3-a]phenanthridine]", "inhibition at 1 µM": 21},
      {"smiles": "Cn1cc([C@@H]2Nc3ccc4[nH]ncc4c3[C@H]3[C@@H]4CC[C@@H](C4)[C@H]32)c(C(F)(F)F)n1", "note": "(stereo in doubt) [Compound 5, 7-(1-Methyl-3-(trifluoromethyl)-1H-pyrazol-4-yl)-6,7,7a,8,9,10,11,11a-octahydro-3H-8,11-methanopyrazolo[4,3-a]phenanthridine]", "inhibition at 1 µM": 70},
      {"smiles": "N#Cc1cc([C@@H]2Nc3ccc4[nH]ncc4c3[C@H]3[C@@H]4CC[C@@H](C4)[C@H]32)ccc1F", "note": "(stereo in doubt) [Compound 10, 2-Fluoro-5-(−6,7,7a,8,9,10,11,11a-octahydro-3H-8,11-methanopyrazolo[4,3-a]phenanthridin-7-yl)benzonitrile]", "inhibition at 1 µM": 3},
      {"smiles": "c1cc2cn[nH]c2cc1[C@@H]1Nc2ccc3[nH]ncc3c2[C@H]2C3CC[C@@H](C3)[C@@H]12", "note": "(stereo in doubt) [Compound 17, 7-(1H-Indazol-6-yl)-6,7,7a,8,9,10,11,11a-octahydro-3H-8,11-methanopyrazolo[4,3-a]phenanthridine]", "inhibition at 1 µM": 91},
      {"smiles": "Nc1n[nH]c2cc([C@@H]3Nc4ccc5[nH]ncc5c4[C@H]4[C@@H]5CC[C@@H](C5)[C@H]43)ccc12", "note": "(stereo in doubt) [Compound 30, 6-(6,7,7a,8,9,10,11,11a-Octahydro-3H-8, 11-methanopyrazolo[4,3-a]phenanthridin-7-yl)-1H-indazol-3-amine]", "inhibition at 1 µM": 29},
      {"smiles": "O=C(Nc1n[nH]c2ccc([C@@H]3Nc4ccc5[nH]ncc5c4[C@H]4[C@@H]5CC[C@@H](C5)[C@H]43)cc12)C1CC1", "note": "(stereo in doubt) [Compound 28, N-(5-(6,7,7a,8,9,10,11,11a-octahydro-3H-8,11-Methanopyrazolo[4,3-a]phenanthridin-7-yl)-1H-indazol-3-yl)cyclopropanecarboxamide]", "inhibition at 1 µM": 31}
    ]}
  ]
}
